In patent publication US10703746B2, “Mutant IDH1 inhibitors useful for treating cancer” (THE UNITED STATES OF AMERICA, AS REPRESENTED BY THE …, priority 2014, dated 2020):

How the values were obtained:
IDH1 R132C = IDH1 R132C (Homo sapiens, UniProt O75874, R132C); assay: IDH1 R132C enzymatic assay (NADPH depletion coupled to diaphorase/resazurin); format: biochemical; settings: enzymatic inhibition, IDH1 R132C
Outline: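 NADPH depletion, read via diaphorase/resazurin coupling, after adding substrate at 0.6 mM α-KG and 0.012 mM NADPH. Beforehand, 0.00032 mg/mL enzyme sat with compound 30 min at room temperature in pH 6.5 potassium phosphate buffer with MgCl2, glycerol and BSA.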

IDH1 R132H = IDH1 R132H (Homo sapiens, UniProt O75874, R132H); assay: IDH1 R132H enzymatic assay (NADPH depletion coupled to diaphorase/resazurin); format: biochemical; settings: enzymatic inhibition, IDH1 R132H
Sequence of IDH1 R132H (O75874 whole entry R132H): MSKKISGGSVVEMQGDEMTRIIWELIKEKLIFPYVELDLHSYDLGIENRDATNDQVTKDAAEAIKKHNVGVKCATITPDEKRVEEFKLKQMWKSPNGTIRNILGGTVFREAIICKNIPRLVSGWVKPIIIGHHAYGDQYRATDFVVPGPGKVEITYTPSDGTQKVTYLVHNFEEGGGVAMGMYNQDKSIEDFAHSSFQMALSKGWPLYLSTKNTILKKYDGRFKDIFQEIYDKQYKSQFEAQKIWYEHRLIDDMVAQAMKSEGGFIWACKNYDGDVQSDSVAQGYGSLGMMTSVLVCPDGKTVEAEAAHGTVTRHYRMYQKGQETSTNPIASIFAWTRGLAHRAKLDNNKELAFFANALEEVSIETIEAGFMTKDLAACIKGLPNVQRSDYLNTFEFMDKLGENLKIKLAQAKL

Sequence of IDH1 R132C (O75874 whole entry R132C): as the sequence (O75874 whole entry R132H) above, with H132C counted along it

SMILES	IC50 (IDH1 R132C)	IC50 (IDH1 R132H)
CCc1cccc(CC)c1-n1c(C=C(C)C)c(C(=O)N2CCC3(CNC3)C2)cc(-c2nc(-c3ccc(Cl)cc3)cs2)c1=O [Compound 519]	< 300 nM	300 to 1000 nM
CCOc1ncc(F)cc1-n1c(C=C(C)C)c(C(=O)N2CCNCC2)cc(-c2nc(-c3ccc(C(F)F)nc3)cs2)c1=O [Compound 520]	1000 to 5000 nM	< 300 nM
CCc1cccc(CC)c1-n1c(C=C(C)C)c(C(=O)N(C)C2CCNCC2)cc(-c2nc(-c3ccc(Cl)cc3)cs2)c1=O [Compound 523]	< 300 nM	< 300 nM
CCc1ncc(F)cc1-n1c(C=C(C)C)c(C(=O)N2CCNCC2)cc(-c2nc(-c3ccc(C(F)F)cc3)cs2)c1=O [Compound 524]	< 300 nM	< 300 nM
CCc1cccc(CC)c1-n1c(C=C(C)C)c(C(=O)N2CCNC(=O)C2C)cc(-c2nc(-c3ccc(Cl)cc3)cs2)c1=O (stereo not shown) [Compound 526]	< 300 nM	< 300 nM
CC(C)=Cc1c(C(=O)N2CCNCC2)cc(-c2nc(-c3ccc(Cl)cc3)cs2)c(=O)n1-c1cc(F)ccc1OC(C)C [Compound 530]	300 to 1000 nM	< 300 nM
COc1ccc(F)cc1-n1c(C=C(C)C)c(C(=O)N2CCNCC2)cc(-c2ccn(-c3ccc(C(F)(F)F)cc3)n2)c1=O [Compound 532]	1000 to 5000 nM	300 to 1000 nM
CCc1cccc(CC)c1-n1c(C=C(C)C)c(C(=O)N2CCNC[C@H]2C)cc(-c2nc(-c3ccc(C(F)(F)F)cc3)cs2)c1=O [Compound 533]	< 300 nM	< 300 nM
CCOc1ncc(F)cc1-n1c(C=C(C)C)c(C(=O)N2CCNCC2)cc(-c2nc(-c3ccc(C(F)(F)F)nc3)cs2)c1=O [Compound 534]	< 300 nM	< 300 nM
CCc1cccc(CC)c1-n1c(C)c(C(=O)N2CCNCC2)c(O)c(-c2nc(-c3ccc(Cl)cc3)cs2)c1=O [Compound 535]	1000 to 5000 nM	300 to 1000 nM
CCc1cccc(CC)c1-n1c(C=C(C)C)c(C(=O)N2CCNCC2COC)cc(-c2nc(-c3ccc(Cl)cc3)cs2)c1=O (stereo not shown) [Compound 536]	< 300 nM	< 300 nM
CCc1cccc(CC)c1-n1c(CC(C)C)c(C(=O)N2CCNCC2)cc(-c2nc(-c3ccc(Cl)cc3C)c(C)s2)c1=O [Compound 540]	1000 to 5000 nM	1000 to 5000 nM
COc1ncc(C)cc1-n1c(C=C(C)C)c(C(=O)N2CCNCC2)cc(-c2ccn(-c3ccc(C(F)(F)F)cc3)n2)c1=O [Compound 541]	1000 to 5000 nM	< 300 nM
CCCC1CN(C(=O)c2cc(-c3nc(-c4ccc(Cl)cc4)cs3)c(=O)n(-c3c(CC)cccc3CC)c2C=C(C)C)CCN1 (stereo not shown) [Compound 542]	< 300 nM	< 300 nM
CCOc1ncc(C)cc1-n1c(C=C(C)C)c(C(=O)N2CCNCC2)cc(-c2nc(-c3ccc(Cl)cc3)cs2)c1=O [Compound 544]	< 300 nM	< 300 nM
CCc1cccc(CC)c1-n1c(C=C(C)C)c(C(=O)N2CCNCC2)cc(-c2nc(-c3ccc(C(F)F)nc3)cs2)c1=O [Compound 546]	< 300 nM	< 300 nM
CCc1cccc(CC)c1-n1c(C=C(C)C)c(C(=O)N2CCNC(CC)C2)cc(-c2nc(-c3ccc(Cl)cc3)cs2)c1=O (stereo not shown) [Compound 550]	< 300 nM	< 300 nM

SMILES	IC50 (IDH1 R132C)	IC50 (IDH1 R132H)
CCc1cccc(CC)c1-n1c(CC(C)C)c(C(=O)N2CCNCC2)cc(-c2nc(-c3ccc(Cl)c(Cl)c3)c(C)s2)c1=O [Compound 551]	< 300 nM	300 to 1000 nM
CCOc1ccc(-n2ccc(-c3cc(C(=O)N4CCNCC4)c(C=C(C)C)n(-c4c(CC)cccc4CC)c3=O)n2)cc1 [Compound 552]	< 300 nM	< 300 nM
CC(C)=Cc1c(C(=O)N2CCNCC2)cc(-c2nc(-c3ccc(Cl)cc3)cs2)c(=O)n1-c1cc(Cl)ccc1OC(C)C [Compound 553]	< 300 nM	< 300 nM
CCc1cccc(CC)c1-n1c(CC(C)C)c(C(=O)N2CCNCC2)cc(-c2nc(/C=C/c3ccc(Cl)cc3)c(C)s2)c1=O [Compound 555]	300 to 1000 nM	1000 to 5000 nM
COc1cccc(F)c1-n1c(C=C(C)C)c(C(=O)N2CCNCC2)cc(-c2nc(-c3ccc(Cl)cc3)cs2)c1=O [Compound 556]	< 300 nM	< 300 nM
C#Cc1ccccc1-n1c(C=C(C)C)c(C(=O)N2CCNCC2)cc(-c2nc(-c3ccc(Cl)cc3)cs2)c1=O [Compound 558]	< 300 nM	< 300 nM
CCc1cccc(CC)c1-n1c(C=C(C)C)c(C(=O)N2CCNCC2)cc(-c2nc(-c3ccc(C(F)F)cn3)cs2)c1=O [Compound 559]	< 300 nM	< 300 nM
CCOc1ncc(C)cc1-n1c(C=C(C)C)c(C(=O)N2CCNCC2)cc(-c2nc(-c3ccc(C(F)F)cc3)cs2)c1=O [Compound 562]	< 300 nM	< 300 nM
CCOc1ncc(F)cc1-n1c(C=C(C)C)c(C(=O)N2CCNCC2)cc(-c2nc(-c3ccc(C(F)(F)F)cc3)cs2)c1=O [Compound 568]	< 300 nM	< 300 nM
CCc1cccc(CC)c1-n1c(C=C(C)C)c(C(=O)N2CCNCC2CC)cc(-c2nc(-c3ccc(Cl)cc3)cs2)c1=O (stereo not shown) [Compound 569]	< 300 nM	< 300 nM
CCc1ccc(Cl)cc1-n1c(C=C(C)C)c(C(=O)N2CCNCC2)cc(-c2nc(-c3ccc(C(F)F)cc3)cs2)c1=O [Compound 571]	< 300 nM	< 300 nM
CCc1cccc(CC)c1-n1c(CC(C)C)c(C(=O)N2CCNCC2)cc(-c2nc(-c3ccc(Cl)cc3OC)c(C)s2)c1=O [Compound 573]	300 to 1000 nM	300 to 1000 nM
CCOc1ncc(Cl)cc1-n1c(C=C(C)C)c(C(=O)N2CCNCC2)cc(-c2nc(-c3ccc(Cl)cc3)cs2)c1=O [Compound 575]	< 300 nM	< 300 nM
CCc1ccc(Cl)cc1-n1c(C=C(C)C)c(C(=O)N2CCNCC2)cc(-c2nc(-c3ccc(C(F)(F)F)cc3)cs2)c1=O [Compound 576]	< 300 nM	< 300 nM
CCc1cccc(CC)c1-n1c(C=C(C)C)c(C(=O)N2CCN[C@@H](C(=O)O)C2)cc(-c2nc(-c3ccc(C(F)(F)F)cc3)cs2)c1=O [Compound 577]	< 300 nM	< 300 nM
CCOc1cccc(CC)c1-n1c(C=C(C)C)c(C(=O)N2CCNCC2)cc(-c2nc(-c3ccc(Cl)cc3)cs2)c1=O [Compound 578]	< 300 nM	< 300 nM

More lines, now with the values ahead:

IC50 (IDH1 R132C)	IC50 (IDH1 R132H)	SMILES
< 300 nM	< 300 nM	CCc1cccc(CC)c1-n1c(-c2cccn2C)c(C(=O)N2CCNCC2)cc(-c2nc(-c3ccc(Cl)cc3)cs2)c1=O [Compound 518]
300 to 1000 nM	1000 to 5000 nM	CC1(C)CC(=O)c2cc(-c3nc(-c4ccc(Cl)cc4)cs3)c(=O)n(-c3cc(Cl)ccc3Cl)c2C1 [Compound 522]
1000 to 5000 nM	1000 to 5000 nM	CCc1cccc(CC)c1-n1c2c(cc(-c3nc(-c4ccc(Cl)cc4)cs3)c1=O)C(=O)CCC2 [Compound 525]
> 20000 nM	> 20000 nM	COc1ccc(CN2CCN(C)CC2)cc1-n1c2c(cc(-c3nc(-c4ccc(Cl)cc4)cs3)c1=O)C(=O)CCC2 [Compound 527]
< 300 nM	< 300 nM	CCOc1ccc(C)cc1-n1c(C=C(C)C)c(C(=O)N2CCNCC2)cc(-c2nc(-c3ccc(Cl)cc3)cs2)c1=O [Compound 528]
< 300 nM	< 300 nM	CCc1cccc(CC)c1-n1c(C=C(C)C)c(C(=O)N2CCCNC(=O)C2)cc(-c2nc(-c3ccc(Cl)cc3)cs2)c1=O [Compound 529]
1000 to 5000 nM	5000 to 20000 nM	CCc1cc(C)cc(CC)c1-n1c2c(cc(-c3nc(-c4ccc(Cl)cc4)cs3)c1=O)C(=O)CCC2 [Compound 531]
< 300 nM	< 300 nM	CCc1cccc(CC)c1-n1c(C=C(C)C)c(C(=O)N2CCNC(=O)CC2)cc(-c2nc(-c3ccc(Cl)cc3)cs2)c1=O [Compound 537]
< 300 nM	< 300 nM	CCc1ccc(OC)cc1-n1c(C=C(C)C)c(C(=O)N2CCNCC2)cc(-c2nc(-c3ccc(Cl)cc3)cs2)c1=O [Compound 539]
1000 to 5000 nM	5000 to 20000 nM	CCc1cccc(C)c1-n1c2c(cc(-c3nc(-c4ccccc4)cs3)c1=O)C(=O)CCC2 [Compound 543]
5000 to 20000 nM	5000 to 20000 nM	CN1CCN(Cc2ccccc2-n2c3c(cc(-c4nc(-c5ccc(Cl)cc5)cs4)c2=O)C(=O)CC(C)(C)C3)CC1 [Compound 547]
< 300 nM	< 300 nM	CCc1ccc(Cl)c(CC)c1-n1c2c(cc(-c3nc(-c4ccc(Cl)cc4)cs3)c1=O)C(=O)CC(C)(C)C2 [Compound 548]
300 to 1000 nM	1000 to 5000 nM	CCc1cccc(CC)c1-n1c(C2CCCCC2)c(C(=O)N2CCNCC2)cc(-c2nc(-c3ccc(Cl)cc3)cs2)c1=O [Compound 549]
1000 to 5000 nM	1000 to 5000 nM	COc1cc(F)ccc1-n1c2c(cc(-c3nc(-c4ccc(Cl)cc4)cs3)c1=O)C(=O)CC(C)(C)C2 [Compound 557]
1000 to 5000 nM	1000 to 5000 nM	CCOC(=O)c1ncsc1-n1c2c(cc(-c3nc(-c4ccc(Cl)cc4)cs3)c1=O)C(=O)CC(C)(C)C2 [Compound 561]
> 20000 nM	> 20000 nM	Cc1ccc(CN2CCN(C)CC2)cc1-n1c2c(cc(-c3nc(-c4ccc(Cl)cc4)cs3)c1=O)C(=O)CCC2 [Compound 563]
5000 to 20000 nM	5000 to 20000 nM	O=C1CCCc2c1cc(-c1nc(-c3ccc(Cl)cc3)cs1)c(=O)n2-c1cccc(CO)c1 [Compound 565]
1000 to 5000 nM	1000 to 5000 nM	COc1cccc(-n2c3c(cc(-c4nc(-c5ccc(Cl)cc5)cs4)c2=O)C(=O)CC(C)(C)C3)c1OC [Compound 567]
> 20000 nM	> 20000 nM	CN1CCN(Cc2cccc(-n3c4c(cc(-c5nc(-c6ccc(Cl)cc6)cs5)c3=O)C(=O)CCC4)c2)CC1 [Compound 570]
< 300 nM	< 300 nM	CCOc1ccccc1-n1c(C=C(C)C)c(C(=O)N2CCNCC2)cc(-c2nc(-c3ccc(Cl)cc3)cs2)c1=O [Compound 572]
